Data as given in PubChem BioAssay AID248 (DTP/NCI, 2004).
“And” between values parts separate entries of the source, which are not always exact repeats. Identical values can stand only once. Toxic doses and inconclusive results are not listed. Rule as the data show it: active = T/C of 150% or more; inactive = T/C below 125%.

System: L1210 leukemia ip in BDF1 mice, survival T/C
Test: NCI In Vivo Anticancer Drug Screen. Data for tumor model L1210 Leukemia (intraperitoneal) in B6D2F1 (BDF1) mice
Conditions: endpoint: mean survival time, higher = longer survival
Method in brief: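 In this screen, tumor-bearing mice given compound are compared to those given vehicle, and their survival values are reported as a treated-to-control quotient.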

[1] = dose: 100.0 mg/kg/injection, schedule: Q04DX003 (ip), vehicle: Klucel (hydroxypropylcellulose) (HPC)
[2] = dose: 200.0 mg/kg/injection, schedule: Q04DX003 (ip), vehicle: Klucel (hydroxypropylcellulose) (HPC)
[3] = dose: 400.0 mg/kg/injection, schedule: Q04DX003 (ip), vehicle: Klucel (hydroxypropylcellulose) (HPC)
[4] = dose: 100.0 mg/kg/injection, schedule: Q04DX002 (ip), vehicle: saline
[5] = dose: 200.0 mg/kg/injection, schedule: Q04DX002 (ip), vehicle: saline
[6] = dose: 100.0 mg/kg/injection, schedule: Q01DX009 (ip), vehicle: saline with Tween-80
[7] = dose: 200.0 mg/kg/injection, schedule: Q01DX009 (ip), vehicle: saline with Tween-80
[8] = dose: 50.0 mg/kg/injection, schedule: Q01DX009 (ip), vehicle: saline with Tween-80
[9] = dose: 12.5 mg/kg/injection, schedule: Q01DX009 (ip), vehicle: Klucel (hydroxypropylcellulose) (HPC)
[10] = dose: 25.0 mg/kg/injection, schedule: Q01DX009 (ip), vehicle: Klucel (hydroxypropylcellulose) (HPC)
[11] = dose: 50.0 mg/kg/injection, schedule: Q01DX009 (ip), vehicle: Klucel (hydroxypropylcellulose) (HPC)
[12] = dose: 100.0 mg/kg/injection, schedule: Q04DX003 (ip), vehicle: saline
[13] = dose: 200.0 mg/kg/injection, schedule: Q04DX003 (ip), vehicle: saline
[14] = dose: 100.0 mg/kg/injection, schedule: Q04DX002 (ip), vehicle: Klucel (hydroxypropylcellulose) (HPC)
[15] = dose: 200.0 mg/kg/injection, schedule: Q04DX002 (ip), vehicle: Klucel (hydroxypropylcellulose) (HPC)
[16] = dose: 400.0 mg/kg/injection, schedule: Q04DX002 (ip), vehicle: Klucel (hydroxypropylcellulose) (HPC)
[17] = dose: 50.0 mg/kg/injection, schedule: Q04DX003 (ip), vehicle: saline
[18] = dose: 100.0 mg/kg/injection, schedule: Q01DX001 (ip), vehicle: saline
[19] = dose: 200.0 mg/kg/injection, schedule: Q01DX001 (ip), vehicle: saline
[20] = dose: 100.0 mg/kg/injection, schedule: Q01DX009 (ip), vehicle: Klucel (hydroxypropylcellulose) (HPC)
[21] = dose: 200.0 mg/kg/injection, schedule: Q01DX009 (ip), vehicle: Klucel (hydroxypropylcellulose) (HPC)
[22] = dose: 400.0 mg/kg/injection, schedule: Q01DX009 (ip), vehicle: Klucel (hydroxypropylcellulose) (HPC)

Measured: T/C

COc1cccc2c1CCc1cc3c(nc1-2)-c1cccc(OC)c1CC3
inactive: [1] 103 % of control | [2] 100 % of control | [3] 101 % of control

CCCCCCCCCCCCCCCCC(C(=O)O)C(O)(CC(=O)O)C(=O)O (stereo not given)
inactive: dose: 19.0 mg/kg/injection, schedule: Q01DX Z (ip), vehicle: carboxymethylcellulose (CMC) 92 % of control | dose: 37.5 mg/kg/injection, schedule: Q01DX Z (ip), vehicle: carboxymethylcellulose (CMC) 92 % of control | dose: 75.0 mg/kg/injection, schedule: Q01DX Z (ip), vehicle: carboxymethylcellulose (CMC) 86 % of control and 87 % of control | dose: 150.0 mg/kg/injection, schedule: Q01DX Z (ip), vehicle: carboxymethylcellulose (CMC) 88 % of control

C=C1CC(OC(C)=O)C2C(C)C(=O)OC2C2C1CC1OC12C (stereo not given)
inactive: [4] 92 % of control | [5] 92 % of control

COc1ccc(-c2nc3cc(Cl)ccc3c(=O)o2)cc1
inactive: [6] 94 % of control | [7] 94 % of control | dose: 400.0 mg/kg/injection, schedule: Q01DX009 (ip), vehicle: saline with Tween-80 90 % of control

Nc1cccc(NC=O)c1
inactive: dose: 25.0 mg/kg/injection, schedule: Q01DX009 (ip), vehicle: saline with Tween-80 102 % of control | [8] 104 % of control

CC(=O)CCC(=O)CCC(=O)O
inactive: [4] 92 % of control | [5] 100 % of control | dose: 400.0 mg/kg/injection, schedule: Q04DX002 (ip), vehicle: saline 95 % of control

CC(C)=CCC/C(C)=C/CC(N)Cc1ccccc1 (stereo not given)
inactive: [9] 94 % of control | [10] 97 % of control | [11] 92 % of control

CC(C)(C)NSc1nc2ccccc2s1
inactive: [8] 97 % of control | [6] 94 % of control | [7] 98 % of control

CSc1nc2[nH]cc(C(=O)O)c(=O)c2c(=O)[nH]1
inactive: [12] 104 % of control | [13] 101 % of control | dose: 400.0 mg/kg/injection, schedule: Q04DX003 (ip), vehicle: saline 91 % of control

COc1ccc(-c2nnc(-c3ccc(OC)c(Cl)c3)nn2)cc1Cl
inactive: [6] 86 % of control | [7] 86 % of control

CC(C)(C)CC(C)(C)c1ccc(OCCOS(=O)(=O)c2cccc([N+](=O)[O-])c2)cc1
inactive: dose: 100.0 mg/kg/injection, schedule: Q04DX003 (ip), vehicle: saline with Tween-80 94 % of control | dose: 200.0 mg/kg/injection, schedule: Q04DX003 (ip), vehicle: saline with Tween-80 90 % of control

CC1CCN(C(=O)C(c2ccccc2)c2ccccc2)CC1
inactive: [14] 101 % of control | [15] 86 % of control | [16] 101 % of control

NNC(=O)C(Cc1cnc[nH]1)NC(=O)OCc1ccccc1 (stereo not given)
inactive: [14] 100 % of control | [15] 90 % of control | [16] 107 % of control

O=[n+]1c2c(n([O-])c3ccccc31)-c1cccc3cccc-2c13
inactive: [17] 96 % of control | [18] 88 % of control | [12] 93 % of control | dose: 125.0 mg/kg/injection, schedule: Q01DX Z (ip), vehicle: methylcellulose (MC) 98 % of control | [19] 94 % of control | [13] 93 % of control

CC1CCCC[N-]1.CC1CCCC[N-]1.CC1CCCC[N-]1.CC1CCCC[N-]1.N#CS.[Zn+2] (stereo not given)
inactive: [18] 93 % of control | [19] 103 % of control

ONC(=Nc1ccccc1)c1ccccc1
inactive: [12] 104 % of control | [13] 101 % of control

N=c1c2cnn(C3OC(CO)C(O)C3O)c2ncn1N (stereo not given)
inactive: dose: 6.25 mg/kg/injection, schedule: Q01DX009 (ip), vehicle: water 112 % of control | dose: 12.5 mg/kg/injection, schedule: Q01DX009 (ip), vehicle: water 121 % of control

O=S(=O)(CCCl)CCc1ccccc1
inactive: dose: 100.0 mg/kg/injection, schedule: Q04DX002 (ip), vehicle: saline with Tween-80 96 % of control | dose: 200.0 mg/kg/injection, schedule: Q04DX002 (ip), vehicle: saline with Tween-80 89 % of control | dose: 400.0 mg/kg/injection, schedule: Q04DX002 (ip), vehicle: saline with Tween-80 93 % of control

Oc1ccc2ccc3[nH]cnc3c2c1
inactive: [20] 101 % of control | [1] 95 % of control | [21] 104 % of control | [2] 95 % of control | [22] 97 % of control | [3] 94 % of control

CC(=O)OC1CCC2(C)C(CCC3C2CC(OC(C)=O)C2(C)C3CCC2C2(C)SCCS2)C1 (stereo not given)
inactive: [14] 94 % of control | [16] 87 % of control

C#CCOCC1CN(c2ccccc2)C(=O)O1 (stereo not given)
inactive: [20] 100 % of control | [1] 101 % of control | [21] 100 % of control | [2] 92 % of control | [22] 91 % of control | [3] 103 % of control

C[N+](C)(CCCCOCCCC[N+](C)(C)Cc1ccc([N+](=O)[O-])cc1)Cc1ccc([N+](=O)[O-])cc1
inactive: dose: 1.5 mg/kg/injection, schedule: Q04DX003 (ip), vehicle: saline with Tween-80 98 % of control | dose: 3.0 mg/kg/injection, schedule: Q04DX003 (ip), vehicle: saline with Tween-80 104 % of control

CC(=O)Nc1cc(C)cc(C)c1
inactive: dose: 50.0 mg/kg/injection, schedule: Q01DX001 (ip), vehicle: carboxymethylcellulose (CMC) 105 % of control | dose: 100.0 mg/kg/injection, schedule: Q01DX001 (ip), vehicle: carboxymethylcellulose (CMC) 111 % of control | dose: 200.0 mg/kg/injection, schedule: Q01DX001 (ip), vehicle: carboxymethylcellulose (CMC) 111 % of control | dose: 400.0 mg/kg/injection, schedule: Q01DX001 (ip), vehicle: carboxymethylcellulose (CMC) 105 % of control

C=CCC1(OC(C)=O)CCN(C)CC1
inactive: dose: 75.0 mg/kg/injection, schedule: Q01DX001 (ip), vehicle: saline 113 % of control

Cc1ccc2nc(C#N)c(C#N)nc2c1
inactive: dose: 6.25 mg/kg/injection, schedule: Q01DX009 (ip), vehicle: Klucel (hydroxypropylcellulose) (HPC) 106 % of control | [9] 97 % of control | [10] 95 % of control and 89 % of control

Cc1nc(C(N)=O)c(=O)[nH]c1C
inactive: dose: 6.25 mg/kg/injection, schedule: Q04DX003 (ip), vehicle: saline 95 % of control | dose: 12.5 mg/kg/injection, schedule: Q04DX003 (ip), vehicle: saline 97 % of control | dose: 25.0 mg/kg/injection, schedule: Q04DX003 (ip), vehicle: saline 94 % of control | [17] 101 % of control | [1] 102 % of control | [2] 100 % of control | [3] 100 % of control

C=CC[N+]12CCCC1C(=C)CC2 (stereo not given)
inactive: dose: 12.5 mg/kg/injection, schedule: Q01DX009 (ip), vehicle: saline 106 % of control | dose: 25.0 mg/kg/injection, schedule: Q01DX009 (ip), vehicle: saline 100 % of control | dose: 50.0 mg/kg/injection, schedule: Q01DX009 (ip), vehicle: saline 97 % of control and 106 % of control

CSc1ccc(NC(=O)Nc2ccccc2)cc1
inactive: [20] 116 % of control | [1] 95 % of control | [21] 106 % of control | [2] 93 % of control | [22] 106 % of control | [3] 95 % of control

O=[N+]([O-])c1cc([N+](=O)[O-])c(Nc2cccc3ccccc23)c([N+](=O)[O-])c1
inactive: [11] 94 % of control | [20] 99 % of control | [1] 100 % of control | [21] 100 % of control | [2] 102 % of control | [3] 102 % of control

Cc1c([N+](=O)[O-])cc(C(=O)Cl)cc1[N+](=O)[O-]
inactive: dose: 100.0 mg/kg/injection, schedule: Q04DX003 (ip), vehicle: other 106 % of control | dose: 200.0 mg/kg/injection, schedule: Q04DX003 (ip), vehicle: other 109 % of control

BrCCCCCCCCCCC1(c2ccccc2)OCCO1
inactive: [20] 107 % of control | [21] 98 % of control | [22] 93 % of control

COc1cc2c(cc1OC)C(C(N)=O)NCC2 (stereo not given)
inactive: dose: 100.0 mg/kg/injection, schedule: Q01DX001 (ip), vehicle: other 101 % of control | dose: 200.0 mg/kg/injection, schedule: Q01DX001 (ip), vehicle: other 97 % of control | dose: 400.0 mg/kg/injection, schedule: Q01DX001 (ip), vehicle: other 93 % of control
